Measurements published in patent publication US9346799B2, “Useful combinations of monobactam antibiotics with beta-lactamase inhibitors” (Basilea Pharmaceutica AG, priority 2005, dated 2016).

Columns and labels:
Assay in all cases: MIC by broth microdilution (NCCLS M7-A5)
[1] = tested on: Stenotrophomonas malthophilia 1AC736; conditions: Stenotrophomonas maltophilia 1AC736
[2] = tested on: Klebsiella pneumoniae CF104
[3] = tested on: Pseudomonas aeruginosa MK1184
Enterobacter cloacae P99 = tested on: Enterobacter cloacae P99
Serratia marcescens S6 = tested on: Serratia marcescens S6
Acinetobacter sp. J2 = conditions: Acinetobacter baumannii J2
[4] = tested on: Pseudomonas aeruginosa 1973E
[5] = + 206 + clavulanate, 4 mg/L each
[6] = + 315 + clavulanate, 4 mg/L each
[7] = + 102 + clavulanate, 4 mg/L each
[8] = MIC of antibiotic 1 with the labelled bridged monobactam of formula II and clavulanate, 4 mg/L each

Row | SMILES | MIC of antibiotic [1, 5] [µg/mL] | MIC of antibiotic ([1]; antibiotic alone) [µg/mL] | MIC of antibiotic ([2]; antibiotic alone) [µg/mL] | MIC of antibiotic [3, 5] [µg/mL] | MIC of antibiotic ([3]; antibiotic alone) [µg/mL] | MIC of antibiotic (Enterobacter cloacae P99; [5]) [µg/mL] | MIC of antibiotic (Enterobacter cloacae P99; antibiotic alone) [µg/mL] | MIC of antibiotic (Serratia marcescens S6; antibiotic alone) [µg/mL] | MIC of antibiotic (Acinetobacter sp. J2; [5]) [µg/mL] | MIC of antibiotic (Acinetobacter sp. J2; antibiotic alone) [µg/mL] | MIC of antibiotic ([4]; antibiotic alone) [µg/mL] | MIC of antibiotic [1, 7] [µg/mL] | MIC of antibiotic [2, 7] [µg/mL] | MIC of antibiotic [3, 7] [µg/mL] | MIC of antibiotic (Enterobacter cloacae P99; [7]) [µg/mL] | MIC of antibiotic (Serratia marcescens S6; [7]) [µg/mL] | MIC of antibiotic (Acinetobacter sp. J2; [7]) [µg/mL] | MIC of antibiotic [4, 7] [µg/mL] | further results
1 | Nc1nc(C(=NOCc2cc(=O)c(O)cn2O)C(=O)NC2CN(S(=O)(=O)O)C2=O)cs1 (centres unmarked) [Compound 9] | – | 0.5 | >32 | – | >32 | – | >32 | 16 | – | >32 | 8 | 0.25 | 0.5 | 4 | 32 | 1 | >32 | 8 | –
2 | CC1C(NC(=O)C(=NOCc2cc(=O)c(O)cn2O)c2noc(N)n2)C(=O)N1S(=O)(=O)O (centres unmarked) [Compound 16] | – | >32 | >32 | – | >32 | – | >32 | >32 | – | >32 | >32 | 2 | 32 | 16 | >32 | >32 | 16 | 16 | –
3 | Nc1nc(CC(=O)N2CC[C@@H]3[C@H]2C(=O)N3S(=O)(=O)O)cs1 [Compound 401] | – | – | – | – | – | – | – | – | – | – | – | – | – | – | – | – | – | – | MIC of antibiotic at fixed inhibitor concentration (4 mg/L) [2, 8]: 35 µg/mL; MIC of antibiotic at fixed inhibitor concentration (4 mg/L) (Serratia marcescens S6; [8]): 3.125 µg/mL; MIC of antibiotic at fixed inhibitor concentration (4 mg/L) [4, 8]: 3 µg/mL

The next lines start with results.

Row | MIC of antibiotic [1, 5] [µg/mL] | MIC of antibiotic ([1]; antibiotic alone) [µg/mL] | MIC of antibiotic ([2]; antibiotic alone) [µg/mL] | MIC of antibiotic [3, 5] [µg/mL] | MIC of antibiotic ([3]; antibiotic alone) [µg/mL] | MIC of antibiotic (Enterobacter cloacae P99; [5]) [µg/mL] | MIC of antibiotic (Enterobacter cloacae P99; antibiotic alone) [µg/mL] | MIC of antibiotic (Serratia marcescens S6; antibiotic alone) [µg/mL] | MIC of antibiotic (Acinetobacter sp. J2; [5]) [µg/mL] | MIC of antibiotic (Acinetobacter sp. J2; antibiotic alone) [µg/mL] | MIC of antibiotic ([4]; antibiotic alone) [µg/mL] | MIC of antibiotic [1, 7] [µg/mL] | MIC of antibiotic [2, 7] [µg/mL] | MIC of antibiotic [3, 7] [µg/mL] | MIC of antibiotic (Enterobacter cloacae P99; [7]) [µg/mL] | MIC of antibiotic (Serratia marcescens S6; [7]) [µg/mL] | MIC of antibiotic (Acinetobacter sp. J2; [7]) [µg/mL] | MIC of antibiotic [4, 7] [µg/mL] | SMILES | further results
4 | 0.5 | 4 | >32 | 16 | 8 | 16 | >32 | >32 | 16 | 4 | 8 | – | – | – | – | – | – | – | CC1C(NC(=O)C(=NOCc2cc(=O)c(O)cn2O)c2nsc(N)n2)C(=O)N1S(=O)(=O)O (centres unmarked) [Compound 2] | –
5 | 4 | – | – | >32 | – | 16 | – | – | 32 | – | – | – | – | – | – | – | – | – | C[C@H]1[C@H](NC(=O)/C(=N\OCc2cc(=O)c(O)cn2C)c2csc(N)n2)C(=O)N1S(=O)(=O)O [Compound 6, (3S,4S)-3-{(2Z)-2-(2-amino(1,3-thiazol-4-yl))-3-[(5-hydroxy-1-methyl-4-oxo(2-hydropyridyl))methoxy]-3-azaprop-2-enoylamino}-4-methyl-2-oxoazetidinesulfonic acid] | MIC of antibiotic [1, 6]: 2 µg/mL; MIC of antibiotic [2, 5]: 0.5 µg/mL; MIC of antibiotic [2, 6]: 0.5 µg/mL; MIC of antibiotic [3, 6]: >32 µg/mL; MIC of antibiotic (Enterobacter cloacae P99; [6]): 4 µg/mL; MIC of antibiotic (Serratia marcescens S6; [5]): 4 µg/mL; MIC of antibiotic (Serratia marcescens S6; [6]): 4 µg/mL; MIC of antibiotic (Acinetobacter sp. J2; [6]): >32 µg/mL; MIC of antibiotic [4, 5]: >32 µg/mL; MIC of antibiotic [4, 6]: >32 µg/mL
